{
  "source": "patent EP3298025B1",
  "about": "“NEW AMINO ACID SEQUENCES WITH MI[…] DERIVED FROM NAJA ATRA CARDIOTOXIN 1 (CTX-1)” (Università degli Studi di Parma, priority 2015, dated 2016)",
  "assay_type_in_all_cases": "cell-based",
  "key": {"[1]": {"system": "epithelial MDBK cells (Madin Darby Bovine Kidney)", "test": "cytotoxicity against eukaryotic cells, Trypan Blue", "conditions": "overnight incubation", "description": "Peptides cytotoxicity against epithelial MDBK cells (Madin Darby Bovine Kidney) was determined using cell cultures of about 5x10^5 cells/ml with and without peptides, with overnight incubation at 37°C with CO2. The negative control was in medium without peptide; positive control was in medium with 0.2% of Triton x100, to completely lyse cells. Cells vitality was assessed adding every well with 20 µl of Trypan Blue, incubating other 5 minutes at 37°C. MCC10 was the minimal peptide concentration with 10% of cytotoxicity."}, "[2]": {"system": "Moraxella catharralis ATCC 25238", "test": "micro-dilution in liquid medium and transplant on agar, Gram-negative bacteria", "conditions": "2 hours at 37°C, transplant on agar", "description": "(§1) For each bacterial strain 3-5 morphologically similar colonies from fresh cultures were taken and inoculated in Brain Heart Infusion broth, then incubated at 37°C in agitation at 225 r.p.m. for about 3-4 hours. Then the bacterial suspension was centrifuged at 1000 G for 20 minutes and the pellet resuspended in phosphate buffer pH 7, 10 mM. The turbidity of the bacterial suspension was measured using a spectrophotometer with absorbance of 600 nm; the range 0.08-0.13 equates to about 10^8 cfu/ml. The bacterial suspension was diluted 1:100 in phosphate buffer 10mM to obtain a bacterial concentration of about 10^6 cfu/ml. Within 30 minutes 50 µl of the suspension (10^6 cfu/ml) were inoculated in each well of the microtiter plate, to obtain a bacterial concentration of about 5x10^5 cfu/ml.\n(§2) The peptides ability to inhibit the bacterial growth in liquid cultures was tested. 50 µl of each peptides solutions of about 0,2-50 µM were added in microtiter plates with 96 wells with U-shaped bottom, containing the liquid culture medium and one of these bacterial strains: E coli ATCC 25922, Pseudomonas. Aeruginosa ATCC 27853, Proteus mirabilis ATCC 14153, Burkholderia cepacia ATCC 17759, Moraxella catharralis ATCC 25238 or other wild strains of Klebsiella pneumoniae subsp. pneumoniae, Enterobacter cloacae, Acinetobacter baumanii.\n(§3) After 2 hours incubation at 37°C, the bacteria were transplanted on solid medium. As a growth reference, bacterial cultures were grown in absence of peptides.\n(§4) The bacterial suspension and peptides were put in contact for 2 hours at 37°C, with differing concentrations of the peptide. Then 20 µl from each well of the plate were taken and transferred on solid culture medium, McConkey agar. The inoculum was uniformly distributed on the agar medium with aid of a sterile disposable handle. After an incubation time of 24 hours at 37°C, the bacterial colonies (cfu) were counted."}, "[3]": {"system": "Klebsiella pneumoniae subsp. pneumoniae (herpetological)", "test": "micro-dilution in liquid medium and transplant on agar, Gram-negative bacteria", "conditions": "2 hours at 37°C, transplant on agar", "description": "as §1, §2, §3, §4"}, "[4]": {"system": "Acinetobacter baumanii from cloaca (herpetological)", "test": "micro-dilution in liquid medium and transplant on agar, Gram-negative bacteria", "conditions": "2 hours at 37°C, transplant on agar", "description": "as §1, §2, §3, §4"}, "[5]": {"system": "Enterobacter cloacae (herpetological)", "test": "micro-dilution in liquid medium and transplant on agar, Gram-negative bacteria", "conditions": "2 hours at 37°C, transplant on agar", "description": "as §1, §2, §3, §4"}, "[6]": {"system": "Pseudomonas aeruginosa ATCC 27853", "test": "micro-dilution in liquid medium and transplant on agar, Gram-negative bacteria", "conditions": "2 hours at 37°C, transplant on agar", "description": "as §1, §2, §3, §4"}, "[7]": {"system": "Proteus mirabilis ATCC 14153", "test": "micro-dilution in liquid medium and transplant on agar, Gram-negative bacteria", "conditions": "2 hours at 37°C, transplant on agar", "description": "as §1, §2, §3, §4"}, "E. coli ATCC 25922 [8]": {"system": "E. coli ATCC 25922", "test": "micro-dilution in liquid medium and transplant on agar, Gram-negative bacteria", "conditions": "2 hours at 37°C, transplant on agar", "description": "as §1, §2, §3, §4"}, "[9]": {"system": "Acinetobacter baumanii from skin (herpetological)", "test": "micro-dilution in liquid medium and transplant on agar, Gram-negative bacteria", "conditions": "2 hours at 37°C, transplant on agar", "description": "as §1, §2, §3, §4"}, "[10]": {"system": "Pseudomonas aeruginosa ATCC 27853", "test": "antimicrobial activity in presence of NaCl", "description": "(§5) Peptides were tested in the ability to inhibit bacterial growth in liquid medium. 50 µl of peptides at a concentration […] E. coli ATCC 25922, Pseudomonas aeruginosa ATCC 27853 and Staphylococcus aureus methicillin resistant ATCC 43300. After 2 hours incubation at 37°C, bacteria were plated on solid culture medium. Bacterial cultures were cultivated without peptides as growth control.\n(§6) The bacterial suspension and peptides at differing concentrations were put in contact for about 2 hours at 37°C. After this incubation, 20 µl from every well of the plate were transplanted on solid culture medium, McConkey agar for Gram-negative and Columbia agar with 5% of bovine erythrocytes for Gram-positive bacteria. The inoculum was evenly distributed on the agar medium using a single use sterile handle. After an incubation time of 24 hours at 37°C, the bacterial colonies (cfu) were counted."}, "E. coli ATCC 25922 [11]": {"system": "E. coli ATCC 25922", "test": "antimicrobial activity in presence of NaCl", "description": "as §5, with “concentration between 0.2 µM and 50 µM were” for “concentration”\nas §6"}, "tested fungal strains": {"system": "tested fungal strains", "test": "micro-dilution and transplant on solid medium, summary over yeast panel", "conditions": "over Candida albicans ATCC 10231, Candida glabrata ATCC 2001 and Malassetia pachydermatis ATCC 14522", "description": "Candida albicans ATCC 10231, Candida glabrata ATCC 2001 and Malassetia pachydermatis ATCC 14522 were cultivated in Czapek-Dox broth (DIFCO) medium for 48-72 hours. On the day of the test the fungal culture was centrifuged at 1700G for 15 minutes and the pellet resuspended in phosphate buffer, then put in agitation on an electric vortex to disrupt fungal cell aggregations. The suspension was diluted to get a final optical density of 0,5 of the McFarland scale (about 1-5x10^6 cell/ml) (Branda J.A., Krantz A. Effect of yeast on automated cell counting. Am J Clin Pathol., 2006:126, 248-254.).\nPeptides ability to inhibit the fungal growth in liquid cultures was tested. 50 µl of each peptides solutions of about 0.2-50 µM were added in microtiter plates with 96 wells with U-shaped bottom, with liquid culture medium and one of these fungi: Candida albicans ATCC 10231, Candida glabrata ATCC 2001 and Malassetia pachydermatis ATCC 14522. After 2 hours of incubation at 37°C, fungal suspensions were plated on solid culture medium, agar Sabouraud. Fungal cultures were cultivated without peptides as growth control.\nthe fungal suspension and peptides at differing concentrations were in contact for about 2 hours at 37°C. […] After an incubation time of 24 hours at 37°C, the fungal colonies (cfu) were counted."}, "[12]": {"conditions": "125 mM NaCl, peptide 12.5 µg/ml"}, "[13]": {"conditions": "250 mM NaCl, peptide 12.5 µg/ml"}},
  "note": "Several values for one entry are separate records, joined by “and”; a condition that tells them apart may be missing. Equal entries are not always repeated. Residues, ends and D or L forms follow the SMILES beside them.",
  "data": [
    {"smiles": "CC[C@H](C)[C@H](NC(=O)[C@H](CCCCN)NC(=O)[C@H](Cc1ccc(O)cc1)NC(=O)[C@H](CS)NC(=O)[C@H](CC(C)C)NC(=O)[C@H](CC(N)=O)NC(=O)[C@H](CCCCN)NC(=O)CNC(=O)[C@H](C)NC(=O)[C@@H]1CCCN1C(=O)[C@H](CS)NC(=O)[C@@H](NC(=O)[C@H](CCCCN)NC(=O)[C@H](CO)NC(=O)[C@H](C)NC(=O)[C@@H](NC(=O)[C@@H]1CCCN1C(=O)[C@@H](NC(=O)[C@H](CC(C)C)NC(=O)[C@@H](N)CCCCN)[C@@H](C)CC)[C@@H](C)CC)[C@@H](C)O)C(=O)O", "note": "[NCP-0, K LIPIA SKT CPA GKN LCY KI] (H-KLIPIASKTCPAGKNLCYKI-OH; N-terminus and C-terminus assumed)", "values": [
      {"measurement": "Cytotoxicity: cell number percentage reduction in comparison with control", "setting": "[1]; peptide 12.5 µg/ml", "value": 4, "unit": "%"},
      {"measurement": "Cytotoxicity: cell number percentage reduction in comparison with control", "setting": "[1]; peptide 100 µg/ml", "value": 6, "unit": "%"},
      {"measurement": "LD90", "setting": "[2]", "value": "0.8 µg/ml and 0.4 µM"},
      {"measurement": "LD99", "setting": "[2]", "value": "1.6 µg/ml and 0.7 µM"},
      {"measurement": "LD90", "setting": "[3]", "value": "> 100 µg/ml and > 46.3 µM"},
      {"measurement": "LD99", "setting": "[3]", "value": "> 200 µg/ml and > 92.6 µM"},
      {"measurement": "LD90", "setting": "[4]", "value": "142.80 µg/ml and 66.1 µM"},
      {"measurement": "LD99", "setting": "[4]", "value": "202.98 µg/ml and 94 µM"},
      {"measurement": "LD90", "setting": "[5]", "value": "> 100 µg/ml and > 46.3 µM"},
      {"measurement": "LD99", "setting": "[5]", "value": "> 200 µg/ml and > 92.6 µM"},
      {"measurement": "LD90", "setting": "[6]", "value": "> 100 µg/ml and > 46.3 µM"},
      {"measurement": "LD99", "setting": "[6]", "value": "> 200 µg/ml and > 92.6 µM"},
      {"measurement": "LD90", "setting": "[7]", "value": "> 100 µg/ml and > 46.3 µM"},
      {"measurement": "LD99", "setting": "[7]", "value": "> 200 µg/ml and > 92.6 µM"},
      {"measurement": "LD90", "setting": "E. coli ATCC 25922 [8]", "value": "152.02 µg/ml and 70 µM"},
      {"measurement": "LD99", "setting": "[9]", "value": "117.96 µg/ml and 54.6 µM"},
      {"measurement": "Antimicrobial activity (% to control)", "setting": "[10]; 10 mM NaCl, peptide 12.5 µg/ml", "value": 0, "unit": "%"},
      {"measurement": "Antimicrobial activity (% to control)", "setting": "[10]; 10 mM NaCl, peptide 100 µg/ml", "value": 2, "unit": "%"},
      {"measurement": "Antimicrobial activity (% to control)", "setting": "[10]; [12]", "value": 0, "unit": "%"},
      {"measurement": "Antimicrobial activity (% to control)", "setting": "[10]; 125 mM NaCl, peptide 100 µg/ml", "value": 0, "unit": "%"},
      {"measurement": "Antimicrobial activity (% to control)", "setting": "[10]; [13]", "value": 0, "unit": "%"},
      {"measurement": "Antimicrobial activity (% to control)", "setting": "[10]; 250 mM NaCl, peptide 100 µg/ml", "value": 0, "unit": "%"},
      {"measurement": "Antimicrobial activity (% to control)", "setting": "E. coli ATCC 25922 [11]; 10 mM NaCl, peptide 12.5 µg/ml", "value": 0, "unit": "%"},
      {"measurement": "Antimicrobial activity (% to control)", "setting": "E. coli ATCC 25922 [11]; 10 mM NaCl, peptide 100 µg/ml", "value": 3, "unit": "%"},
      {"measurement": "Antimicrobial activity (% to control)", "setting": "E. coli ATCC 25922 [11]; [12]", "value": 0, "unit": "%"},
      {"measurement": "Antimicrobial activity (% to control)", "setting": "E. coli ATCC 25922 [11]; 125 mM NaCl, peptide 100 µg/ml", "value": 0, "unit": "%"},
      {"measurement": "Antimicrobial activity (% to control)", "setting": "E. coli ATCC 25922 [11]; [13]", "value": 0, "unit": "%"},
      {"measurement": "Antimicrobial activity (% to control)", "setting": "E. coli ATCC 25922 [11]; 250 mM NaCl, peptide 100 µg/ml", "value": 0, "unit": "%"},
      {"measurement": "LD99", "setting": "tested fungal strains", "value": "> 150 µg/ml and > 69.2 µM"}
    ]}
  ]
}
